# Assays:
# plasma citrulline = experiment: Plasma citrulline levels in human Crohn's Disease patients treated with Teduglutide (randomized, double-blind, placebo-controlled clinical study); format: in vivo; details: for Baseline plasma citrulline levels, mean: baseline (Dosing Day 1), subjects with moderately active CD; for 2-week plasma citrulline levels, mean: week 2; for 2-week plasma citrulline levels, mean / 4-week plasma citrulline levels, mean / 8-week plasma citrulline levels, mean: subcutaneous injection daily, CD subjects; for 4-week plasma citrulline levels, mean: week 4; for 8-week plasma citrulline levels, mean: week 8
# Experimental: In a further experiment plasma citrulline levels in human patients treated with Teduglutide for the treatment of Crohn's Disease (CD) were determined. Subjects with moderately active CD were treated in a randomized, double-blind, placebo-controlled clinical study to assess the activity of 3 different doses of Teduglutide compared to placebo. The primary objective of the study was to assess the efficacy and the secondary objectives were to assess the safety and tolerability of the different doses of Teduglutide as compared to placebo. Following a screening visit to evaluate whether subjects met the inclusion/exclusion criteria, the study ran over a period of up to 12 weeks, including visits at baseline/Dosing Day 1, Weeks 2, 4, and 8, and one at the end of the follow-up period at Week 12. Teduglutide doses administered by subcutaneous injection were 0.05, 0.10 and 0.20 mg/kg on a daily basis for 8 weeks. The primary efficacy variable used was the percentage of subjects with a response, defined as a 100-point or greater reduction in the subject's CDAI score at dosing Week 8 from their baseline score or a CDAI score less than 150 at Week 8.
# arrhythmia incidence = details: CAST, cited from earlier work; for mortality in the drug treatment groups: fold greater
# bone mineral density = details: administration of fluoride, cited from earlier work
smiles,measurement,setting,value
CC[C@H](C)[C@H](NC(=O)[C@H](Cc1ccccc1)NC(=O)[C@H](CC(=O)O)NC(=O)[C@H](CCCNC(=N)N)NC(=O)[C@H](C)NC(=O)[C@H](C)NC(=O)[C@H](CC(C)C)NC(=O)[C@H](CC(N)=O)NC(=O)[C@H](CC(=O)O)NC(=O)[C@H](CC(C)C)NC(=O)[C@@H](NC(=O)[C@@H](NC(=O)[C@H](CC(N)=O)NC(=O)[C@H](CCSC)NC(=O)[C@H](CCC(=O)O)NC(=O)[C@H](CC(=O)O)NC(=O)[C@H](CO)NC(=O)[C@H](Cc1ccccc1)NC(=O)[C@H](CO)NC(=O)CNC(=O)[C@H](CC(=O)O)NC(=O)CNC(=O)[C@@H](N)Cc1c[nH]cn1)[C@@H](C)O)[C@@H](C)CC)C(=O)N[C@@H](CC(N)=O)C(=O)N[C@@H](Cc1c[nH]c2ccccc12)C(=O)N[C@@H](CC(C)C)C(=O)N[C@H](C(=O)N[C@@H](CCC(N)=O)C(=O)N[C@H](C(=O)N[C@@H](CCCCN)C(=O)N[C@H](C(=O)N[C@H](C(=O)N[C@@H](CC(=O)O)C(=O)O)[C@@H](C)O)[C@@H](C)CC)[C@@H](C)O)[C@@H](C)CC [Teduglutide],"Baseline plasma citrulline levels, mean",plasma citrulline; 0.05 mg group,21.6 µmol/L
same,"Baseline plasma citrulline levels, mean",plasma citrulline; 0.10 mg group,24.7 µmol/L
same,"Baseline plasma citrulline levels, mean",plasma citrulline; 0.20 mg group,24.5 µmol/L
same,"mean citrulline level, change","plasma citrulline; from baseline to week 8, teduglutide-treated groups, placebo group remains the same",increases
same,"2-week plasma citrulline levels, mean",plasma citrulline; 0.05 mg group,30.3 µmol/L
same,"2-week plasma citrulline levels, mean",plasma citrulline; 0.10 mg group,36.9 µmol/L
same,"2-week plasma citrulline levels, mean",plasma citrulline; 0.20 mg group,32.7 µmol/L
same,"4-week plasma citrulline levels, mean",plasma citrulline; 0.05 mg group,34.5 µmol/L
same,"4-week plasma citrulline levels, mean",plasma citrulline; 0.10 mg group,49.1 µmol/L
same,"4-week plasma citrulline levels, mean",plasma citrulline; 0.20 mg group,38.8 µmol/L
same,"8-week plasma citrulline levels, mean",plasma citrulline; 0.05 mg group,37.9 µmol/L
same,"8-week plasma citrulline levels, mean",plasma citrulline; 0.10 mg group,46.0 µmol/L
same,"8-week plasma citrulline levels, mean",plasma citrulline; 0.20 mg group,41.8 µmol/L
O=C(NCC1CCCCN1)c1cc(OCC(F)(F)F)ccc1OCC(F)(F)F (stereo not shown) [flecainide],arrhythmia incidence,arrhythmia incidence,significant reduction
same,mortality in the drug treatment groups,arrhythmia incidence,3 fold
COc1ccc(C(=O)Nc2ccccc2CCC2CCCCN2C)cc1 (stereo not shown) [encainide],arrhythmia incidence,arrhythmia incidence,significant reduction
same,mortality in the drug treatment groups,arrhythmia incidence,3 fold
F [fluoride],fracture risk,bone mineral density; also weaker bone strength,increased fracture risk
same,bone mineral density,bone mineral density,significant increases
